Measured values: patent US11872236B2, “Pharmacological agents for treating ocular diseases” (CALASIA PHARMACEUTICALS, INC., priority 2018, dated 2024)
Converted amounts (≈) assume the structure as drawn. Like-named read-outs stand apart in the source and are kept apart here.

Tests used:
[1] = system: human lens epithelial (HLE) cells; experiment: Cell-based heat protection, viability by Alamar blue; parameters: Cell Heat % protection: concentration or dose not given beside the values; details: for Cell-based [Heat] (max % net protection): Table 5
Method: Alamar blue was used for assessing viability. Mean±SEM of the measurements are shown.
Cell-based using assays using human lens epithelial cell lines SRA 01/04 and B3 were also performed. The cells were exposed to UV or heat and cell viability assessed 24 hours post-exposure by Alamar blue staining. In another experiment, SRA 01/04 cells were pre-incubated with varying concentrations of compounds two hours prior to UV exposure. Relative protection was measured as percent viability compared to vehicle control 24 hours following UV exposure. Mean±SEM of the measurements are shown.

[2] = system: New Zealand white rabbits; experiment: Ocular safety / MTD, repeated dose for 7 days; format: in vivo; details: for Mortality and Morbidity: 50 μL × 4 times a day in each eye, male
Method: Prodrug CAP4196 is well-tolerated up to 10% concentration in New Zealand white rabbits. Initial maximum tolerated dose studies (MTD) help identify observable signs of toxicity and provide a rationale for setting dose levels in later definitive studies. Therefore, the MTD of CAP4196 was evaluated in New Zealand white rabbits. Four animals per group were dosed with increasing concentrations (0.25, 2.5, 8 and 10%) of CAP4196 at 50 μl volume q.i.d. dosing at 2 hrs interval. Following the dosing, the animals were evaluated for mortality and morbidity, ophthalmological examination, body weight, and clinical pathology before start of dosing then on dosing days 2, 4, and 6 prior to first dose instillation and on day 7, one hour after last dose instillation.

[3] = Solubility with FDA approved excipients; format: physicochemical
Method: Solubility: The solubility of CAP1160 and CAP4196 was tested with different FDA approved excipients such as cyclodextrin, PEG-b-PCL, Kolliphor-EL, Kolliphor-40, sorbitol, propelyne gycol, sodium phosphate, etc. […] This makes the formulation safe for topical use (see Table 6).

SRA 01/04 HLE cells = experiment: Cell-based UV protection, viability by Alamar blue; parameters: species or system human; details: Table 5;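 further: cells pretreated with compound at a range of concentrations before UV irradiation, viability read 24 h after exposure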
alpha-A crystalline = target: T1, alpha-A crystalline (Homo sapiens, UniProt P02489); experiment: Ca+2 and UVC induced aggregation of alpha-A crystalline (absorbance screen); format: biochemical; details: for inhibition at 200 µM: Ca+2 and UVC induced aggregation of alpha-A crystalline, read-out: Percent protection (at 200 μM); for EC50: preventing Ca+2 and UVC induced aggregation of alpha-A crystalline;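 on all read-outs here: recombinant human alpha-A crystallin (500 µg/ml) preincubated 30 min with compound, then UV-induced aggregation tracked by absorbance at time points from 0 to 120 min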
T1 sequence (P02489 1-173): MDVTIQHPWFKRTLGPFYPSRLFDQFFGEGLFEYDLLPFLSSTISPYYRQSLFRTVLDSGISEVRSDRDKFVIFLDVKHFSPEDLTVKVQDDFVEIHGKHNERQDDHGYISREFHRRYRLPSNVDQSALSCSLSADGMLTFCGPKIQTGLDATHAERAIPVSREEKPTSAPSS

TTR = TTR (Homo sapiens, UniProt P02766); details: Sant'Anna, R. et al. (2016); cited from earlier work
porcine eye lens = experiment: Ex vivo eye lens exposed to UVC radiation, cataract scoring; details: Table 8; printed as a percentage
Method: The top row of the figure corresponds to lenses that were not exposed to UVC but contained same percent of DMSO as those that were exposed to UVC. The lenses were monitored and imaged for three days following the exposure to UVC. No drug was added to the lenses post UVC exposure.

## Cc1ccc(C(=O)c2cc(OP(=O)([O-])[O-])c(O)c([N+](=O)[O-])c2)cc1.[Na+].[Na+] [CAP4196, Sodium 2-hydroxy-5-(4-methylbenzoyl)-3-nitrophenyl phosphate]
[1]
  Cell-based [Heat] (max % net protection): 38%
[2]; 10% w/v, 50 μL, 4 times a day
  local reactions: only few temporary local reactions like excessive rubbing of eyes and redness
  systemic toxicity: did not produced any systemic toxicity
[2]; 50 μL, 4 times a day, 2 hours interval, 7 days
  MTD (highest dose concentration): 10%
[2]; ophthalmic formulation 0.25% w/v
  Mortality and Morbidity: 0
[2]; ophthalmic formulation 4% w/v
  Mortality and Morbidity: 0
[2]; ophthalmic formulation 8% w/v
  Mortality and Morbidity: 0
[2]; ophthalmic formulation 10% w/v
  Mortality and Morbidity: 0
[2]; topical ocular, repeated dose 7 days
  well-tolerated concentration: up to 10%
[3]; 100 mg/ml, only water as solvent
  pH of the formulation: 6.65
[3]; aqueous with cosolvent or surfactant or cyclodextrin, water with (2-hydroxypropyl)-beta cyclodextrin (1:1), read-out: Solubility in water with (2-hydroxypropyl)-beta cyclodextrin mg/ml (1:1)
  solubility: 100 mg/mL
[3]; pH 6.65, only water as solvent, read-out: solubility
  solubility: 100 mg/mL
[3]; phosphate prodrug, only water as solvent
  improvement in solubility: greater than 660 fold
[3]; water, read-out: Solubility in water
  solubility: 100 mg/mL
SRA 01/04 HLE cells
  Cell-based [UV] (max % net protection): 63%

## O=C(c1cccc(F)c1)c1cccc(F)c1 [CAP4161]
[1]
  Cell-based [Heat] (max % net protection): 8%
SRA 01/04 HLE cells
  Cell-based [UV] (max % net protection): 38%

## O=C(c1ccccc1)c1ccccc1 [CAP4127]
[1]
  Cell-based [Heat] (max % net protection): 9%
SRA 01/04 HLE cells
  Cell-based [UV] (max % net protection): 55%

## O=C(O)c1ccc(C(=O)c2ccccc2C(=O)O)cc1 [CAP4173]
[1]
  Cell-based [Heat] (max % net protection): 0%
SRA 01/04 HLE cells
  Cell-based [UV] (max % net protection): 61%

## O=C(c1ccccc1)c1ccccc1S(=O)(=O)c1ccccc1 [CAP4279]
[1]
  Cell-based [Heat] (max % net protection): 0%
SRA 01/04 HLE cells
  Cell-based [UV] (max % net protection): 5%

## O=C(c1cccc([N+](=O)[O-])c1)c1ccc2c(c1)C(=O)OC2=O [CAP4265]
[1]
  Cell-based [Heat] (max % net protection): 17%
SRA 01/04 HLE cells
  Cell-based [UV] (max % net protection): 129%

## O=C(O)c1ccc(C(=O)c2ccccc2)cc1 [CAP4172]
[1]
  Cell-based [Heat] (max % net protection): 9%
SRA 01/04 HLE cells
  Cell-based [UV] (max % net protection): 67%

## COc1ccc(C(=O)c2ccccc2)cc1OC [CAP4132]
[1]
  Cell-based [Heat] (max % net protection): 0%
SRA 01/04 HLE cells
  Cell-based [UV] (max % net protection): 39%

## O=C(c1ccccc1)c1ccc(O)c(O)c1 [CAP1347]
[1]
  Cell-based [Heat] (max % net protection): 8%
alpha-A crystalline
  inhibition at 200 µM: 13%
  EC50: 115 µM
SRA 01/04 HLE cells
  Cell-based [UV] (max % net protection): 28%

## COc1cc(O)c(C(=O)c2ccccc2)cc1S(=O)(=O)O [CAP4162]
[1]
  Cell-based [Heat] (max % net protection): 3%
SRA 01/04 HLE cells
  Cell-based [UV] (max % net protection): 60%

## COc1cc(O)c(C(=O)c2cc(S(=O)(=O)[O-])c(OC)cc2O)cc1S(=O)(=O)[O-].[Na+].[Na+] [CAP4136]
[1]
  Cell-based [Heat] (max % net protection): 5%
SRA 01/04 HLE cells
  Cell-based [UV] (max % net protection): 70%

## O=C(O)c1ccc(C(=O)c2ccc(C(=O)O)cc2)cc1 [CAP4160]
[1]
  Cell-based [Heat] (max % net protection): 0%
SRA 01/04 HLE cells
  Cell-based [UV] (max % net protection): 82%

## O=C(c1ccccc1)c1ccc(O)c(O)c1O [CAP4133]
[1]
  Cell-based [Heat] (max % net protection): 18%
SRA 01/04 HLE cells
  Cell-based [UV] (max % net protection): 22%

## Cc1ccc(C(=O)c2ccccc2)c(N)c1 [CAP4152]
[1]
  Cell-based [Heat] (max % net protection): 0%
SRA 01/04 HLE cells
  Cell-based [UV] (max % net protection): 17%

## COc1cc(O)c(C(=O)c2ccccc2)cc1S(=O)(=O)[O-].[Na+] [CAP4135]
[1]
  Cell-based [Heat] (max % net protection): 4%
SRA 01/04 HLE cells
  Cell-based [UV] (max % net protection): 75%

## Cc1ccc(C(=O)c2cc(O)c(O)c([N+](=O)[O-])c2)cc1 [CAP1160, Tolcapone]
[1]
  Cell-based [Heat] (max % net protection): 23%
TTR
  TTR aggregation inhibition: potent TTR aggregation inhibitor
[3]
  With Kolliphor 40 (1:1) In water: 1
  With PEG-b-PCL (1:1) mg/ml in water: 1 mg/mL
  improvement in solubility: 10 fold
[3]; aqueous with cosolvent or surfactant or cyclodextrin, Solubility in water with (2-hydroxypropyl)-beta cyclodextrin mg/ml (1:1)
  solubility: 2 mg/mL (≈ 7.32 mM)
[3]; aqueous with cosolvent or surfactant or cyclodextrin, solubility
  solubility: 1.5 mg/mL (≈ 5.49 mM)
[3]; water, Solubility in water mg/ml
  solubility: 0.1 mg/mL (≈ 0.366 mM)
alpha-A crystalline
  inhibition at 200 µM: 65%
  EC50: 63.5 µM
SRA 01/04 HLE cells
  Cell-based [UV] (max % net protection): 68%

## O=C(c1cc(O)c(O)c([N+](=O)[O-])c1)c1ccccc1F [CAP3089]
[1]
  Cell-based [Heat] (max % net protection): 0%
alpha-A crystalline
  inhibition at 200 µM: 56%
  EC50: 362 µM
SRA 01/04 HLE cells
  Cell-based [UV] (max % net protection): 31%

## NC(=O)Cc1cccc(C(=O)c2ccccc2)c1N [CAP4281]
[1]
  Cell-based [Heat] (max % net protection): 8%
SRA 01/04 HLE cells
  Cell-based [UV] (max % net protection): 38%

## COc1ccc(C(=O)c2ccccc2)cc1 [CAP4130]
[1]
  Cell-based [Heat] (max % net protection): 42%
SRA 01/04 HLE cells
  Cell-based [UV] (max % net protection): 55%

## CNc1ccc2c(O)cc(S(=O)(=O)O)cc2c1 [CAP4184]
Porcine eye lens
  Ex-vivo: 15%
[1]; Table 8
  Cell Heat % protection: 4%
